Data from PMC12517324, “Hyperagonism of a Vitamin D Receptor Agonist/Histone Deacetylase Inhibitor Hybrid Molecule” (Journal of Medicinal Chemistry, 2025).

Target: T1, HDAC6 (Homo sapiens, UniProt Q9UBN7)
T1 sequence (Q9UBN7 1-1215): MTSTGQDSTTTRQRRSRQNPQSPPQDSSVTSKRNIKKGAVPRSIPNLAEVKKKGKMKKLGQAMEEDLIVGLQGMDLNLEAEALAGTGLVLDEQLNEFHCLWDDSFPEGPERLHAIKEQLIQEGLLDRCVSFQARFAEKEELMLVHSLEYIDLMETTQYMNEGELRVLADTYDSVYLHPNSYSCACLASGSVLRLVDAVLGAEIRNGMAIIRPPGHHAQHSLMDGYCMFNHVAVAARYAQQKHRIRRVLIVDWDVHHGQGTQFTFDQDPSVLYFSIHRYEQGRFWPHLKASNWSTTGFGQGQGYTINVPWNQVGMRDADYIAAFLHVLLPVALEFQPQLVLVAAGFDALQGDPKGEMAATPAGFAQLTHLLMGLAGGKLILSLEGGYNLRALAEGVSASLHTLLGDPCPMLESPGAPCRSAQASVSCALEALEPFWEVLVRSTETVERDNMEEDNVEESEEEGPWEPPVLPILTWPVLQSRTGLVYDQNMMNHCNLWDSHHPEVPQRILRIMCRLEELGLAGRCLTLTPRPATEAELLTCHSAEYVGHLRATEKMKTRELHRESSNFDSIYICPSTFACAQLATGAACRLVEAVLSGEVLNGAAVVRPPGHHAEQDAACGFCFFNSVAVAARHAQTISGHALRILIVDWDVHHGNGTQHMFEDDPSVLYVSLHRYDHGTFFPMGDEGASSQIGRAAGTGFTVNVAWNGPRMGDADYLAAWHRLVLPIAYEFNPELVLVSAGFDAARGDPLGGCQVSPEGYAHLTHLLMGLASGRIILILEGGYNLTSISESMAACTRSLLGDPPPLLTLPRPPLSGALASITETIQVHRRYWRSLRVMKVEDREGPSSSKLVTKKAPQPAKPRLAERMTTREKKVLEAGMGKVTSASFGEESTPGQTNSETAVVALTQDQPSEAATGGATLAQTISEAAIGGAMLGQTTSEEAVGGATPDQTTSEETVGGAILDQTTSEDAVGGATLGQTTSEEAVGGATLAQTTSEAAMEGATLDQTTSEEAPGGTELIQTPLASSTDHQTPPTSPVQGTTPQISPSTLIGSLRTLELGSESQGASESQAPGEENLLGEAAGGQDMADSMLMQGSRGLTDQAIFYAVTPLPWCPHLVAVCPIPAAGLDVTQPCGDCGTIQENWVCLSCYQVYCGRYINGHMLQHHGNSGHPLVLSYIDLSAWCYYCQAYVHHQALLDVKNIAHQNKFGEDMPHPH
Assay: Inhibition of purified HDAC6, Boc-Lys(Ac)-AMC substrate
Format: biochemical
Design: purchased Cayman Chemical
Conditions: 1 h 37 °C

For CCC(CC)(c1ccc(OCCCCCC(=O)NO)cc1)c1ccc(OCC(O)C(C)(C)C)c(C)n1 (stereo not shown) [AM-193], which IC50 is on record?
The IC50 was 3.09 µM.
